# Test results from patent US20100227841A1, “Patient populations and treatment methods” (Harbor BioSciencs, Inc., priority 2008, published 2010).
# Tested on: female NOD mice
# Assay: Spontaneous autoimmune diabetes in non-obese diabetic (NOD) mouse model
# Assay type: in vivo
# Excerpt: Treatment of spontaneous autoimmune diabetes in non-obese diabetic (NOD) mouse model. The NOD model is used as an animal model for human type 1 diabetes. The NOD mouse strain spontaneously develops autoimmune (type 1) diabetes by a process that has similarities to human type 1 diabetes mellitus, e.g., immune-mediated selective destruction of the pancreatic islet 13-cells that produce insulin (M. A. Atkinson and N. K. Maclaren, New England J. Medicine, 331:1428-1436 1994). There is a higher incidence of diabetes (i.e., hyperglycemia, glucosuria, and hypoinsulinemia) in female vs. male NOD mice (80-90% vs. 10-20%, respectively). Disease incidence in this animal model is first observed at approximately 12 to 15 weeks of age with maximum incidence usually peaking 5 to 6 weeks later.
# Methods. An oral formulation containing 17α-ethynylandrost-5-ene-3β,7β,17β-triol in 30% w/v β-cyclodextrin sulfobutyl ether sodium salt (Captisol®; CyDex, Inc., Overland Park, Kans.) was used. Six-week old female NOD mice (approximately 20-25 grams) were purchased from The Jackson Laboratories (Bar Harbor, Me.) and housed in a vivarium under pathogen-free conditions. The animals were acclimated for at least one week prior to initiation of oral dosing with 17α-ethynylandrost-5-ene-3β,7β,17β-triol. Animals were randomized into 5 per cage upon receipt and cages were subsequently randomized into dosing groups.
# Female NOD mice were treated once daily with vehicle, 17α-ethynylandrost-5-ene-3β,7β,17β-triol (20 or 80 mg/kg in 100 μL, p.o.), or dexamethasone (0.25 mg/kg, 100 μL, i.p.) from 15 to 25 weeks of age (i.e., before the first incidence of diabetes; at the University of Catania), from 13 to 19 weeks of age (2 days after the first incidence of diabetes), or from 12 to 26 weeks of age (9 days after the first incidence of diabetes). Blood glucose was monitored using glucometers (ENCORE Glucometer, Bayer Corp., Elkhart, Ind.) at weekly intervals, beginning at 10 weeks of age. Mice with blood glucose levels 200 mg/dL on two consecutive occasions were considered diabetic. The percentage of animals with diabetes over the course of the experiment was monitored.
# Histological assessment of insulitis and functional 13-cell content was assessed at the time of disease diagnosis or at the end of the 26-week study (i.e., disease-free mice). Pancreata (after CO2 euthanasia) were immediately isolated and placed in 10% buffered formalin at room temperature overnight, and then embedded in paraffin. After de-paraffinizing, pancreas samples were rehydrated and 5 μm sections were prepared and fixed on glass slides. Some sections were stained with hematoxylin and eosin (H&E) while others were stained with anti-insulin antibody as follows; prepared sections were immersed in Tris-Buffered Saline (TBS: 10 mM Tris buffer, pH 7.4, 0.15 M NaCl) containing 1% of bovine serum albumin (BSA) and 5% normal goat serum for 2 h at room temperature followed by incubation with 2 μg/mL rat anti-insulin IgG2a monoclonal antibody (MAB1417; R&D Systems, Minneapolis, Minn.) in TBS/1% BSA overnight at 4° C. in a humidified chamber. After washing with TBS/0.5 Tween-20, sections were covered with biotinylated anti-rat IgG secondary antibody (BD biosciences, 1:1,000) for 1 h at room temperature, followed by washing with TBS/Tween-20 and incubation with streptavidin-horseradish peroxidase for 30 min. Sections were then incubated with chromogen substrate, DAB (BD Biosciences), for 5 min and counterstained with hematoxylin. The degree of insulitis (leukocyte infiltration per islet; H&E) and functional 13-cell content per islet (insulin production) was scored using a scale of 0 to 3 in which 0=none, 1=few, 2=moderate, 3=high content of inflammatory cells or functional β-cells. Pancreata that were scored were obtained from a randomly-selected portion of mice from each cohort and scores were reported as the mean±SEM for each cohort.
# [1] = dexamethasone 0.25 mg/kg i.p. once daily
# [2] = dexamethasone 0.25 mg/kg i.p. once daily, scale of 0 to 3
compound,measurement,setting,value
"C[C@@H]1C[C@H]2[C@@H]3CCC4=CC(=O)C=C[C@]4(C)[C@@]3(F)[C@@H](O)C[C@]2(C)[C@@]1(O)C(=O)CO [dexamethasone, reference compound]",Disease Incidence,[1],0.20 ± 0.20
same,No. Islets/pancreas (H&E),[1],8.2 ± 6.3
same,Insulitis Score/Islet (H&E),[2],2.0 ± 0.6
same,β-Cell Score/Islet (Insulin),[2],2.3 ± 0.3
same,first incidence of diabetes,"week 19, once daily treatment from 15 to 25 weeks of age (vehicle 25%)",0%
